The experiment addresses T1, HIV reverse transcriptase (Human immunodeficiency virus type 1 group M subtype B, UniProt P04585).
T1 construct: Recombinant purified HIV reverse transcriptase (HIV RT); purchased Worthington Biochemical Corp (Lakewood, N.J.)
The experiment in a line: Binding of HIV RT to biosensor coated with primer-template (Octet QK), with dNTP and NNRTI. Further details: species or system HIV-1. As for the experimental part:
Template oligonucleotide Btn-4460-45095 and primer oligonucleotide 4496-4509AS were synthesized and analyzed (liquid chromatography-mass spectrometry (LC-MS) and electrospray ionization (ESI)) by Integrated DNA Technologies (Coralville, Iowa). Oligonucleotides were prepared in TE Buffer (10 mM Tris pH 8.0, 0.1 mM EDTA) to 100 μM. Primer and template oligonucleotides were combined (10 μM each strand) in a tube containing Annealing Buffer (10 mM Tris pH 8.0, 0.1 mM EDTA, 80 mM KCl). The tube containing primer-template solution was loaded onto a dry heat block (95° C. for 5 min), and the block was transferred to the bench top to anneal the strands by gradual cooling to ambient temperature. Uncompetitive NNRTI compounds (Pitta et al., J. Enzyme Inhib. Med. Chem. 28(10):113-22 (2013)), which is incorporated by reference herein in its entirety), were from Epigen Biosciences, Inc. (San Diego, Calif.). NNRTI compounds 7 (3-4-chloro-benzo[d]thiazol-2yl)-2-(2-chloro-6-fluorophenyl)thiazolidin-4-one) and 18 (3-(6-ethoxy-benzo[d]thiazol-2-yl)-2-(2-chloro-6-fluorophenyl)thiazolidin-4-one) were dissolved in dimethylsulfoxide (DMSO) to concentrations of 25.0 mM and 15.0 mM, respectively. Recombinant purified HIV reverse transcriptase (HIV RT) was from Worthington Biochemical Corp (Lakewood, N.J.). Ultra-pure bovine serum albumin (BSA) was from Ambion (Foster City, Calif.). All reagents and solutions were molecular biology grade.
Primer-template duplex was diluted ([…]) into Annealing Buffer. Immediately before use, HIV Reverse Transcriptase was pre-diluted into Enzyme Diluent (50 mM Tris, pH 8.0, 8 mM MgCl2). Binding buffer (50 mM Tris, pH 8.0, 160 mM KCl, 0.5 mM EDTA, 11 mM MgCl2, 0.3% (v/v) Triton X-100, 5.3 mM dithiothreitol (DTT), 100 μg/mL bovine serum albumin (BSA), 100 μM dNTP (dATP, dTTP, dGTP or dCTP), 100 nM HIV RT). NNRTI compounds were pre-diluted with DMSO immediately before being spiked into Binding Buffer. Reaction Buffer was Binding Buffer without NNRTI, dNTP or HIV RT enzyme. Buffer containing Primer-Template (PT), PT Wash Buffer, Binding buffer containing one dNTP, and Reaction Buffer were loaded (200 μL/well) into a Greiner 96-well black microplate (Sigma-Aldrich, St. Louis, Mo.; catalog number M9685). Streptavidin (SA) Biosensors (Pall ForteBio Corp., Menlo Park, Calif.; catalog number 18-5019) were re-hydrated in Annealing Buffer for approximately 10 minutes before use. The Octet QK biosensor system (Pall ForteBio Corp., Menlo Park, Calif.) was set for 30° C. operation and was programmed to coat the biosensors with Primer-Template and wash away unbound Primer-Template with PT Wash Buffer. Biosensors were transferred to Binding Buffer containing HIV RT+dCTP±NNRTI (association phase) followed by Reaction Buffer (dCTP incorporation and dissociation phase). Similarly, biosensors were transferred cyclically to solutions containing individual deoxyribonucleoside triphosphates (dATP, dGTP, dCTP or dTTP) as indicated. Cycles of binding and incorporation were repeated multiple times.
Data were imported into Microsoft Excel and Prism software (GraphPad Software, San Diego, Calif.) for display. The progress of binding and dissociation reactions was smoothed either by averaging within a 19.4-second window or by Prism software (19.4-second window and 6th-order smoothing polynomial).
On the technique in general: BLI is a label-free optical method that tracks binding on a fibre tip over time.

Regarding `O=C1CSC(c2c(F)cccc2Cl)N1c1nc2c(Cl)cccc2s1` (stereo not drawn) [NNRTI compound 7], the “binding to biosensor coated with primer-template in the association phase” value by setting is: (HIV RT + incorrect nucleotides dCTP and dATP (cycles 7 and 8) + NNRTI 40 μM, FIG. 7A) “did not produce a binding peak”; (HIV reverse transcriptase + correct dNTP + NNRTI 40 μM, ALK primer-template, FIG. 7A) “distinct peaks for binding”; (control: HIV RT with 40 μM NNRTI, no dNTP, FIG. 7A) “did not produce appreciable binding peaks”.

In the case of `CCOc1ccc2nc(N3C(=O)CSC3c3c(F)cccc3Cl)sc2c1` (stereo not drawn) [NNRTI compound 18, 3-(6-ethoxy-benzo[d]thiazol-2-yl)-2-(2-chloro-6-fluorophenyl)thiazolidin-4-one], the “binding to biosensor coated with primer-template in the association phase” value is given as “did not show a binding peak” (HIV RT + incorrect nucleotide dTTP (cycle 4) + NNRTI 80 μM, FIG. 8); “distinct peaks for binding” (HIV reverse transcriptase + correct dNTP + NNRTI 80 μM, ALK primer-template, FIG. 8); “did not produce appreciable binding peaks” (control: HIV RT with 80 μM NNRTI, no dNTP, FIG. 8).

For the origin of these results see patent US11499185B2, “Nucleic acid sequencing methods and systems” (OMNIOME, INC., priority 2015, dated 2022).
